Where a name gives a salt, the structure may show the parent alone.
Molecular target: T1, NPM1 (Homo sapiens, UniProt P06748)
T1 construct: endogenous in cells; host or cells: HEK293T
Experiment: In-situ labeling and enrichment of NPM1 in HEK293T cells (MS-MS, Western)
Format: cell-based
Protocol: Cell culture and in-situ tryptophan probe treatment: Cell lines were cultured at 37° C. with 5% C02. Human embryonic kidney 293 cells expressing a mutant version of the SV40 large T antigen (HEKT293T cells) were grown in Dulbecco's Modified Eagle Medium (DMEM, Gibco) supplemented with 10% fetal bovine serum and 1% penicillin/streptomycin. For in-situ labeling, cells were grown to 90% confluence, washed with Dulbecco's phosphate buffered saline (DPBS), treated with 100x stocks of the tryptophan probes (the pyridinium salts) in OptiMem (GibCo) to generate final concentrations (0 μM, 1 μM, 10 μM, and 100 μM) in 1% dimethylsulfoxide (DMSO). Cells were incubated for 1 hour at 37° C. with 5% C02 followed by photo-activation at the respective wavelengths for 20 minutes at 4° C. Cells were harvested with a cell scraper, washed 3× with DPBS, and pellets were stored at −80° C. until further use. […]
In-situ tryptophan probe sample processing for peptide-level characterization: Cell pellets were lysed via sonication (QSonica) at 50% amplitude, 2 seconds ON, 3 seconds OFF, 30 seconds in 40 mM HEPES pH 7.5 (4-(2-hydroxyethyl)-1-piperazineethanesulfonic acid), 1.5 mM magnesium chloride (MgCl2), 1% Sodium dodecyl sulfate (SDS), 0.8% NP-40 (also known as nonyl phenoxypolyethoxylethanol), and 1x protease inhibitors (Thermo). Protein concentration was determined by BCA (Pierce). […]
In-situ tryptophan probe sample processing for protein-level identification: Cell pellets were lysed via sonication (QSonica) at 50% amplitude, 2 seconds ON, 3 seconds OFF, 30 seconds in 50 mM HEPES pH 7.5, 1.5 mM MgCl2, 1% SDS, 0.8% NP-40, and 1x protease inhibitors (Thermo). Protein concentration was determined by BCA (Pierce). […]

[1] = chemoproteomic profiling, HEK293T cells

T1 sequence (P06748 whole entry): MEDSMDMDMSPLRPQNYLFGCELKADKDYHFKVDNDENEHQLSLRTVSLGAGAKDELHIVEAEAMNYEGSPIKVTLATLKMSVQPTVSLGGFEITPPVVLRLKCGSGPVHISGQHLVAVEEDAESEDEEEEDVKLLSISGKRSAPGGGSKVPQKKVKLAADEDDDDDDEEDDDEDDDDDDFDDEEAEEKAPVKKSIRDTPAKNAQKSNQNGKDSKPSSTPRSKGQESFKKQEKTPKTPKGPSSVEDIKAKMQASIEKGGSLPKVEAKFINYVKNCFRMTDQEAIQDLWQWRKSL

in-situ labeled tryptophan residue [1]: Trp290
labeling of Trp288 [1]: not labeled
NPM1 in enriched protein mixture (Western analysis) (cultures irradiated with blue light in the presence of probe, protein-level enrichment): found to contain both proteins
Compound: COc1ccc2cc(-c3cc(C)[n+](N(C)C(=O)OCCCCCCN=[N+]=[N-])c(C)c3)ccc2c1 [Pyridinium salt 2d, 1-((((6-azidohexyl)oxy)carbonyl)(methyl)amino)-4-(6-methoxynaphthalen-2-yl)-2,6-dimethylpyridin-1-ium tetrafluoroborate]

From patent US20240262844A1, “PYRIDINIUM SALTS AND METHODS OF USE” (UNIVERSITY OF WYOMING, priority 2023, published 2024)
